This is an account of results in PMC12040169 (PLOS Biology, 2025).

The structures appear in SMILES notation.

One series can be described thus: in vitro. The note with it: human, hela cells, % viability.
On to `Brc1cncc2c1ccn2CCN1CCOCC1` [CBK083479], for which the viability at 28.5 h, 10 µM was 87.1%.
Same read-out and setting: then `COc1ccc(CNC(=O)N2CCN(c3ccccc3OC)CC2)cc1OC` [CBK155609], with 89.2%; and `O=C(O)C1(Oc2ccc3ccccc3c2)CCN(C2CCNCC2)CC1` [CBK306615], with 108%; and `COC(=O)c1ccc(NC(=O)N2CCCCC2CCn2ccnc2)cc1` (centres unmarked) [CBK307195], with 86.8%.
As for `O=C(CCC(=O)c1ccccc1)Nc1cc2ccccc2c(N2CCNCC2)n1` [CBK028418T], the viability at 28.5 h, 10 µM was found to be 106%.
Still for that read-out and setting: the same measure for `CCNC(=O)Nc1ncc(-c2ccc(C(C)(C)C)cc2)c2cccnc12` [CBK070632]: 98.6%; for `C=CCNC(=O)C[C@@H]1CCN(C(=O)c2ccnc(Cl)c2)C[C@@H]1CC` [CBK289136]: 94.3%; for `Cc1noc(C)c1NC(=O)c1nccc2ccccc12` [CBK200310]: 93.3%.
The same measure, in the same setting: then `Cc1cc2c(cc1C)OC1(C=C2)CCN(C(=O)N2CCOCC2)CC1` [CBK285314], with 94.4%; and `Cc1nc(N/C(=N/C(=O)c2ccccc2)NC(=O)c2ccccc2)nc2ccccc12` [CBK262529], with 103%; and `O=C1NC2(CCN(C(=O)Cc3ccsc3)CC2)Nc2ccccc21` [CBK283963], with 94.7%.
Regarding `O=C(C1CCC1)N1CCC(c2nnc3n2CCCCC3)CC1` [CBK284625], the viability at 28.5 h, 10 µM came out at 103%.
Same read-out and setting: the same measure for `O=C(c1csc2c1CCCC2)N1CCC(O)(c2ccccn2)CC1` [CBK282397]: 107%.
On the same count and under the same terms, then `CCOC(=O)CN1CCC(Oc2cncc(OCc3cccnc3)n2)C1` (centres unmarked) [CBK084462], with 99.4%.
For `OC(Cc1ccccc1)c1cc2n(n1)CCN(Cc1ccsc1)C2` (centres unmarked) [CBK307603], the viability at 28.5 h, 10 µM is 89.5%.
Still for that read-out and setting: then `Cc1cc(F)c(S(N)(=O)=O)cc1NC(=O)c1ccc(CN2CCOCC2)o1` [CBK059376C], with 97.7%; and `CCOc1ccc(C2(C)C(=O)N(CN3CCOCC3)C(=O)N2CN2CCOCC2)cc1` (centres unmarked) [CBK261359], with 96%; and `COc1ccccc1NCc1c(O)c(Br)cc2oc3c(c12)CCCC3` [CBK160398], with 93.4%.
In the case of `O=C(Cc1ccccn1)NC(Cc1cccs1)c1ccccn1` (centres unmarked) [CBK282243], the viability at 28.5 h, 10 µM worked out at 93.1%.
Same read-out and setting: then `O=S(=O)(Nc1cc(F)cc(C(F)(F)F)c1)c1cc2c(N3CCNCC3)nccc2s1` [CBK038102C], with 95.5%; and `CCC(CN1CCOCC1)NC(=O)Cc1coc2cc(C)c(C)cc12` (centres unmarked) [CBK282811], with 91%.
The same measure, in the same setting: then `Cc1ccccc1-c1ccc(C(=O)NC2CCCCC2)c(NCc2cccnc2)n1` [CBK076159], with 90.5%; and `Cn1cnnc1SCc1nc(N)nc(Nc2ccccc2)n1` [CBK018022], with 106%.
Same read-out and setting: then `CC(=O)N1CCC(C(=O)Nc2cnc(-c3ccc(F)cc3)c(-c3ccco3)n2)CC1` [CBK037038], with 104%; and `CSc1ccc(-n2ncc(-c3ccc(F)cc3F)n2)cc1` [CBK112728], with 91.3%.
Take `CC(=O)N1CCC2(CCCC[C@H]3CN(CC(=O)N(C)C)CC[C@@H]3NC(=O)CNC2=O)CC1` [CBK292163]: the viability at 28.5 h, 10 µM was found to be 94.6%.
With `COC(=O)[C@H]1CN(C(=O)Cc2ccccn2)C[C@@H]1c1ccc(F)cc1` [CBK283519], the viability at 28.5 h, 10 µM was 93.8%.
The same measure, in the same setting: the same measure for `Cc1cc(=O)oc2cc(NC(=S)NNC(=O)c3ccc(Cl)s3)ccc12` [CBK266828]: 92.3%; for `CC[C@H]1CN(C(=O)C(C)(C)C)CC[C@H]1CC(=O)NCc1cccnc1` [CBK289135]: 97.8%; for `CCC(=O)c1cccc2c1NC=C1C(=O)CC(C)(C)CC1=N2` [CBK265821]: 108%.
On the same count and under the same terms, the same measure for `COc1ccc(C2CC(=O)C(=CNCCN3CCN(C(=O)c4ccccc4)CC3)C(=O)C2)cc1` (centres unmarked) [CBK264762]: 104%.
The same measure, in the same setting: the same measure for `Cc1cnccc1-c1cn(C)nc1-c1ccc(CNC(=O)c2cccc(N(C)C)c2)cc1` [CBK285633]: 86.5%; for `COC(=O)c1cccn2cc(CN(CC#N)C3CC3)nc12` [CBK305821]: 105%; for `CC(NCc1nc(=O)c2sccc2[nH]1)c1ccc2c(c1)OCCO2` (centres unmarked) [CBK295157]: 88.4%.
`O=C(O)c1ccccc1C(=O)N1CCC2(CC1)NCCc1c2[nH]c2ccccc12` [CBK047235]: the viability at 28.5 h, 10 µM worked out at 83.9%.
The same measure, in the same setting: the same measure for `O=C1c2ccccc2NC(C(=O)O)(c2ccccc2)N1c1ccccc1Cl` (centres unmarked) [CBK287169]: 81%; for `Cc1cnccc1-c1c[nH]nc1C1CCCN1C(=O)c1ccccc1` (centres unmarked) [CBK285499]: 104%.
Still for that read-out and setting: then `Cc1cc(NC(=O)CN2CCC(Cc3ccccc3)CC2)nc2c1c(=O)oc1ccccc12` [CBK291261], with 87.2%; and `O=C(c1ccccc1)c1ccc2n1CCC2C(=O)N1CCN(c2ccccc2)CC1` (centres unmarked) [CBK300536], with 115%.
Same read-out and setting: then `CC(C)Nc1nc2ccccc2nc1SCCN(C)C` [CBK103672], with 115%; and `Cc1nc(O)cc(C2CCCN(C(=O)c3scc4c3CCCC4)C2)n1` (centres unmarked) [CBK306969], with 88.5%; and `CC(=O)c1c(CSc2ccccc2)nn2c1CCCC2` [CBK016543], with 78.9%.
Take `CC(C)(C)OC(=O)N1CCN(c2ccc(N)cn2)CC1` [CBK003463]: the viability at 28.5 h, 10 µM came out at 95.5%.
On the same count and under the same terms, then `O=C1C=C(O)CC(CCc2ccc(F)cc2)(CCc2ccc(F)cc2)O1` [CBK008148], with 92.7%; and `Cc1c(S(=O)(=O)Nc2ccc(-c3ccc(F)cc3)cc2)cnn1C` [CBK281418], with 114%.
On the same count and under the same terms, then `COC(=O)[C@@H]1Cc2ncn(Cc3ccc(Cl)cc3)c2CN1C(=O)c1ccc(C#N)cc1` [CBK288984], with 94.5%.
On the same count and under the same terms, then `Cc1ccc2c(c1)C(=O)NCC1(CCN(Cc3ccccc3)CC1)O2` [CBK285048], with 104%.
As for `CC(CN(C)C(=O)c1nc(=O)[nH][nH]1)Oc1ccc(Cl)c(Cl)c1` (centres unmarked) [CBK306471], the viability at 28.5 h, 10 µM is 87.9%.
Still for that read-out and setting: the same measure for `CC(NC(=O)c1cccc2ccccc12)c1ccc2ccccc2c1` (centres unmarked) [CBK267646]: 90.1%; for `O=C(CCCc1ccccc1)Nc1c(F)cc(F)cc1OC1CCNCC1` [CBK050222T]: 96.1%; for `COc1ccc(OC(C)C(=O)O/N=C(\N)c2ccccn2)cc1` (centres unmarked) [CBK266669]: 100%.
Same read-out and setting: the same measure for `C=CCc1cccc(Cl)c1OCCN1CCN(C)CC1` [CBK269734C]: 90.5%.
Still for that read-out and setting: the same measure for `O=C(CSc1nc(-c2ccco2)cc(C(F)(F)F)n1)Nc1ccc(C(=O)N2CCCCC2)cc1` [CBK266238]: 101%; for `COC(=O)Nc1ccc(S(=O)(=O)N2CCCCC2C(=O)O)cc1` (centres unmarked) [CBK058086]: 106%; for `Cc1cc(C)nc(SCCC(=O)O)n1` [CBK260975]: 87.7%.
As to `O=C(N/N=C/c1cc(Br)c(Br)o1)c1cccc(F)c1` [CBK261688], the viability at 28.5 h, 10 µM came to 94.2%.
For the compound `COc1cc(CNc2nc(Br)cn3ccnc23)cc(OC)c1OC` [CBK038060], the viability at 28.5 h, 10 µM is 110%.
The same measure, in the same setting: then `CN(Cc1ccccc1)C1CCN(Cc2ccccn2)CC1` [CBK264622G], with 107%; and `COc1cc(Nc2cccc(-c3cccc(NC(C)=O)c3)n2)cc(OC)c1OC` [CBK037698], with 111%.
On to `O=C(NCCCn1ccnc1)c1cccs1` [CBK261740], for which the viability at 28.5 h, 10 µM was 90.2%.
Same read-out and setting: then `CC(=O)Cn1cnc2c(cnn2-c2cccc(Cl)c2)c1=O` [CBK287692], with 84.4%; and `COc1cc(CCN2CCC(c3nc(-c4ccccc4)c4ccccn34)CC2)cc(OC)c1OC` [CBK035278], with 91%; and `Nc1ccc(-c2nc(NC(=O)c3cccs3)cnc2-c2ccc(F)cc2)cc1` [CBK037597], with 94.2%.
Same read-out and setting: the same measure for `OC1(c2cccnc2)C2CCCC1CN(Cc1cccc(F)c1F)C2` (centres unmarked) [CBK285205]: 88.1%.
Same read-out and setting: the same measure for `CC(=O)c1ccc(NC(=O)NNS(=O)(=O)c2ccc(F)cc2)cc1` [CBK266944]: 109%.
Consider `c1ccc2sc(-c3cc(Nc4ccc5[nH]ccc5c4)ncn3)cc2c1` [CBK090858], for which the viability at 28.5 h, 10 µM worked out at 82.5%.
Same read-out and setting: then `Cc1cccc(Cc2cccc(C3CCCN(C(=O)c4ccc(=O)[nH]c4)C3)n2)c1` (centres unmarked) [CBK286243], with 95.9%.
Still for that read-out and setting: the same measure for `OCCOc1ccccc1-c1cc[nH]n1` [CBK001973]: 104%.
As to `Cc1nc2ccc(NC(=O)Nc3ccnc4cccnc34)cc2o1` [CBK085498], the viability at 28.5 h, 10 µM was found to be 90%.
As to `CCc1nnc(NC(=O)COC(=O)CSc2nc(C)cc(C)n2)s1` [CBK018792], the viability at 28.5 h, 10 µM came out at 90.9%.
Still for that read-out and setting: then `O=C(Nc1nc2ccccc2[nH]1)C1c2ccccc2Oc2ccccc21` [CBK265454], with 98.9%.
Still for that read-out and setting: the same measure for `O=C(Cn1cccc2cc(C3CCCNC3)nc1-2)N1CCCC1` (centres unmarked) [CBK285086]: 88.7%; for `C/C(=N\NC(=O)CNC(=O)c1ccc(Br)cc1)c1ccccc1` [CBK262020]: 103%; for `CN(CCc1ccccc1)Cc1nc2ccccc2c(=O)[nH]1` [CBK283204]: 98.7%.
Still for that read-out and setting: the same measure for `CC(C)CNS(=O)(=O)c1ccc(CCC(=O)O)cc1` [CBK287107]: 80.9%; for `COc1ccc(-c2cc3cccnc3n2CC(=O)NC(C)(C)C)cc1` [CBK285381]: 115%; for `COCCNc1nccnc1-c1ccccc1` [CBK088555]: 105%.
For `CC(C)C(=O)Nc1cc2ccccc2c(-c2cccc(C(F)(F)F)c2)n1` [CBK085738], the viability at 28.5 h, 10 µM stood at 95.6%.
As to `Cc1ccsc1CN1CCOCC1` [CBK026429], the viability at 28.5 h, 10 µM was 110%.

The same series, now with this note: human, hela cells, % viability, bulk resorufin, single well.
As for `CCOC(=O)C1(c2ccccc2)CCN(C(=O)Cc2nnn[nH]2)CC1` [CBK132182], the viability at 28.5 h, 10 µM is 94.6%.
